From US20260226061A1, “COMPOSITIONS USEFUL FOR MODULATING SPLICING” (Skyhawk Therapeutics, Inc., priority 2023, published 2026)

tested on: ATXN3 pre-mRNA; experiment: ATXN3 Quantitative Splicing Assay (qPCR, E4E5 primers/probe, transcripts containing exon 4); assay type: cell-based; conditions: Human neuroblastoma SK-N-MC cells, 24 h treatment, 30 μM to 0.6 nM; read-out: ATXN3 Potency - Splicing E4E5 IC50
Method: Human neuroblastoma SK-N-MC cells were plated in 384-well plates at 20,000 cells/well. Twenty-four hours after plating, cells were treated with compounds for 24 h at appropriate concentrations ranging from 30 μM to 0.6 nM (0.3% DMSO). Treated cells were lysed in 15 μL of lysis buffer, and cDNA was synthesized using the Fast Advanced Cells-to-Ct kit. Two μL of each cDNA was used in qPCR reactions to confirm the exon 4 skipped transcripts of ATXN3. A second set of primers/probe E4E5 was used to detect the transcripts containing exon 4. The third set of primers/probe E8E9 was used to detect total gene level of ATXN3. The qPCR reactions were prepared in 384-well plates in 10 μL volume, using TaqMan™ Fast Advanced Master Mix with primers and probes shown in the table below. Reactions were run in a Quant Studio 6 qPCR instrument with default settings.
The primers and probes are listed below in Table 3.

SMILES	IC50 [µM]
Cc1c(C[C@@H](N)[C@H](C)F)cc2c(NCc3ccccc3F)nc(Cl)nn12 [Compound 8, 6-((2R,3S)-2-amino-3-fluorobutyl)-2-chloro-N-(2-fluorobenzyl)-7-methylpyrrolo[2,1-f][1,2,4]triazin-4-amine]	0.101 to 0.5
C[C@H](F)[C@H](N)Cc1cc2c(NCc3ccccc3)nc(Cl)nn2c1Br [Compound 3, 6-((2R,3S)-2-amino-3-fluorobutyl)-N-benzyl-7-bromo-2-chloropyrrolo[2,1-f][1,2,4]triazin-4-amine]	0.101 to 0.5
N[C@H](Cc1cc2c(NCc3ccccc3)nc(Cl)nn2c1Cl)CC1CC1 [Compound 11, (S)-6-(2-amino-3-cyclopropylpropyl)-N-benzyl-2,7-dichloropyrrolo[2,1-f][1,2,4]triazin-4-amine]	0.501 to 5
Cc1c(C[C@@H](N)CC2CC2)cc2c(NCc3ccccc3)nc(Cl)nn12 [Compound 13, (S)-6-(2-amino-3-cyclopropylpropyl)-N-benzyl-2-chloro-7-methylpyrrolo[2,1-f][1,2,4]triazin-4-amine]	5 to 10
Cc1c(C[C@@H](N)[C@H](C)F)cc2c(NCc3ccccc3)nc(Cl)nn12 [Compound 7, 6-((2R,3S)-2-amino-3-fluorobutyl)-N-benzyl-2-chloro-7-methylpyrrolo[2,1-f][1,2,4]triazin-4-amine]	0.501 to 5
N[C@H](Cc1cc2c(NCc3ccccc3F)nc(Cl)nn2c1Br)CC1CC1 [Compound 10, (S)-6-(2-amino-3-cyclopropylpropyl)-7-bromo-2-chloro-N-(2-fluorobenzyl)pyrrolo[2,1-f][1,2,4]triazin-4-amine]	0.501 to 5
N[C@H](Cc1cc2c(NCc3ccccc3)nc(Cl)nn2c1Br)CC1CC1 [Compound 9, (S)-6-(2-amino-3-cyclopropylpropyl)-N-benzyl-7-bromo-2-chloropyrrolo[2,1-f][1,2,4]triazin-4-amine]	0.501 to 5
C[C@H](F)[C@H](N)Cc1cc2c(NCc3ccccc3F)nc(Cl)nn2c1Br [Compound 4, 6-((2R,3S)-2-amino-3-fluorobutyl)-7-bromo-2-chloro-N-(2-fluorobenzyl)pyrrolo[2,1-f][1,2,4]triazin-4-amine]	0.101 to 0.5
C[C@H](F)[C@H](N)Cc1cc2c(NCc3ccccc3F)nc(Cl)nn2c1Cl [Compound 5, 6-((2R,3S)-2-amino-3-fluorobutyl)-2,7-dichloro-N-(2-fluorobenzyl)pyrrolo[2,1-f][1,2,4]triazin-4-amine]	0.101 to 0.5
C[C@H](F)[C@H](N)Cc1cc2c(NCc3ccc(F)cc3)nc(Cl)nn2c1Br [Compound 1, 6-((2R,3S)-2-amino-3-fluorobutyl)-7-bromo-2-chloro-N-(4-fluorobenzyl)pyrrolo[2,1-f][1,2,4]triazin-4-amine]	0.501 to 5
Cc1c(C[C@@H](N)CC2CC2)cc2c(NCc3ccccc3F)nc(Cl)nn12 [Compound 14, (S)-6-(2-amino-3-cyclopropylpropyl)-2-chloro-N-(2-fluorobenzyl)-7-methylpyrrolo[2,1-f][1,2,4]triazin-4-amine]	5 to 10
N[C@H](Cc1cc2c(NCc3ccccc3F)nc(Cl)nn2c1Cl)CC1CC1 [Compound 12, (S)-6-(2-amino-3-cyclopropylpropyl)-2,7-dichloro-N-(2-fluorobenzyl)pyrrolo[2,1-f][1,2,4]triazin-4-amine]	0.501 to 5
C[C@H](F)[C@H](N)Cc1cc2c(NCc3ccccc3)nc(Cl)nn2c1Cl [Compound 6, 6-((2R,3S)-2-amino-3-fluorobutyl)-N-benzyl-2,7-dichloropyrrolo[2,1-f][1,2,4]triazin-4-amine]	0.101 to 0.5
C[C@H](F)[C@H](N)Cc1cc2c(NCc3ccc(F)cc3)nc(Cl)nn2c1Cl [Compound 2, 6-((2R,3S)-2-amino-3-fluorobutyl)-2,7-dichloro-N-(4-fluorobenzyl)pyrrolo[2,1-f][1,2,4]triazin-4-amine]	0.501 to 5
